Measurements as given in US20230053864A1, “Methods for Identifying Modulators of G Protein-Coupled Receptors” (University of Miami, priority 2019, published 2023).
Several values for one entry are separate records, joined by “and”; a condition that tells them apart may be missing. Equal entries are not always repeated. Entries after “also recorded” stand apart in the source; their conditions may differ. Where two headings read alike, the source gives them in different places. Values belong to the compound of their own block, whether it stands above or below them.

What was measured:
ADRA2B = biological target: T1, ADRA2B (Homo sapiens, UniProt P18089); test: dCyFIRscreen profiling and titrations in yeast GPCR-Gα reporter strains; assay type: cell-based
T1 construct: expressed in transfected cells; host or cells: Saccharomyces cerevisiae BY4741-derived GPCR-Gα reporter strains, X-2 landing pad
T1 sequence (P18089 1-450): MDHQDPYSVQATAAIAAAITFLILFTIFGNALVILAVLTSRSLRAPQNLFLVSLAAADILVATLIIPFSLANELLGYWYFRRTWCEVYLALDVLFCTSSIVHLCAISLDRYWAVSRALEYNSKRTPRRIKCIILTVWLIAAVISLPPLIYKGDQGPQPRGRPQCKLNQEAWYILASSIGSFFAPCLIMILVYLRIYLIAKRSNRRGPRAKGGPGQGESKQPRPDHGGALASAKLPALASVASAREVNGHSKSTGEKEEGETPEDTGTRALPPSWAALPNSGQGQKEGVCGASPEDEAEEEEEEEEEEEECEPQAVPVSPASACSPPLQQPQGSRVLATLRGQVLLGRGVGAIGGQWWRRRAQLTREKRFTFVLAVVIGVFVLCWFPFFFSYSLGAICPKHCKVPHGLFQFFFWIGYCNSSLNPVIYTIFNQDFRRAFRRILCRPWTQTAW
Method: dCyFIRscreen protocol. […] Cells were normalized to an OD of 0.1 in SCD LoFo pH=7.0 using a Biomek NXp liquid-handling robot. […] 36 μL normalized cells were distributed to each well containing the appropriate 10× ligand/vehicle. Plates were sealed with a breathable cover (Diversified Biotech; BERM-2000) and incubated at 30° C. […] Absorbance readings were also collected after 18 hours using the same instrument (22 flashes/well, excitation filter: 600 nm).
Titration Analyses. All titration curves were analyzed using Prism software and the pharmacological fitting function log(agonist) vs. response—Variable slope (four parameters) (GraphPad Software, San Diego, USA).

S1PR2 = biological target: T2, S1PR2 (Homo sapiens, UniProt O95136); test: as above; assay type: cell-based
T2 construct: expressed in transfected cells; host or cells: Saccharomyces cerevisiae BY4741-derived GPCR-Gα reporter strains, X-2 landing pad
Method: (§1) Individual Gα reporter strains were grown in SCD LoFo pH=7.0 at 30° C. to an OD=1.0 in a 2.0 mL 96-well DeepWell block (Greiner; 780271-FD). Cells were normalized to an OD of 0.1 in SCD LoFo pH=7.0 using a Biomek NXp liquid-handling robot. 10× ligand/vehicle stocks were prepared (see Table 2) and 4 μL were distributed to each well of a 384-well plate (Greiner; 781096) in quadruplicate using a Biomek NXp. 36 μL normalized cells were distributed to each well containing the appropriate 10× ligand/vehicle. Plates were sealed with a breathable cover (Diversified Biotech; BERM-2000) and incubated at 30° C. Fluorescence readings were collected after 18 hours using a plate reader (ClarioStar, BMG LabTech, Offenburg, Germany) (bottom read, 10 flashes/well, excitation filter: 430-10 nm, dichroic filter: LP 458 nm, emission filter: 482-16 nm, gain=1300 (1500 for FIG. 1B.)). Absorbance readings were also collected after 18 hours using the same instrument (22 flashes/well, excitation filter: 600 nm).
(§2) All titration curves were analyzed using Prism software and the pharmacological fitting function log(agonist) vs. response—Variable slope (four parameters) (GraphPad Software, San Diego, USA).

S1PR1 = biological target: T3, S1PR1 (Homo sapiens, UniProt P21453); test: as above; assay type: cell-based
T3 construct: expressed in transfected cells; host or cells: Saccharomyces cerevisiae BY4741-derived GPCR-Gα reporter strains, X-2 landing pad
Method: as §1, §2

LPAR1 = biological target: T4, LPAR1 (Homo sapiens, UniProt Q92633); test: as above; assay type: cell-based
T4 construct: expressed in transfected cells; host or cells: Saccharomyces cerevisiae BY4741-derived GPCR-Gα reporter strains, X-2 landing pad
Method: as §1, §2

[1] = tested on: 20 GPCRs (200 GPCR-Gα strains); test: control dCyFIRscreen profiles against 20 GPCRs (200 GPCR-Gα strains); assay type: cell-based, human; conditions: 20 GPCRs incl. all 15 constitutively active receptors
Method: dCyFIRscreen protocol. Individual Gα reporter strains were grown in SCD LoFo pH=7.0 at 30° C. to an OD=1.0 in a 2.0 mL 96-well DeepWell block (Greiner; 780271-FD). Cells were normalized to an OD of 0.1 in SCD LoFo pH=7.0 using a Biomek NXp liquid-handling robot. 10× ligand/vehicle stocks were prepared (see Table 2) and 4 μL were distributed to each well of a 384-well plate (Greiner; 781096) in quadruplicate using a Biomek NXp. 36 μL normalized cells were distributed to each well containing the appropriate 10× ligand/vehicle. Plates were sealed with a breathable cover (Diversified Biotech; BERM-2000) and incubated at 30° C. Fluorescence readings were collected after 18 hours using a plate reader (ClarioStar, BMG LabTech, Offenburg, Germany) (bottom read, 10 flashes/well, excitation filter: 430-10 nm, dichroic filter: LP 458 nm, emission filter: 482-16 nm, gain=1300 (1500 for FIG. 1B.)). Absorbance readings were also collected after 18 hours using the same instrument (22 flashes/well, excitation filter: 600 nm).

[2] = tested on: 300-plex of GPCR-Gα reporter strains; test: dCyFIRplex FACS sorting of agonist-treated 300-plex; assay type: cell-based, Saccharomyces cerevisiae; conditions: following agonist treatment
Method: dCyFIRplex protocol. […] 10× ligand/vehicle stocks were added to individual wells of a DeepWell block. The consolidated 300-plex or control strains were then added to each well and grown in the presence of ligand/vehicle overnight, so that each culture would reach an OD=4.0 before dCyFIRplex profiling. Samples were washed with sterile ddH2O and normalized to an OD=2.0 in SCD LoFo pH=7.0. Tracer cells were added to each sample at a 1:301 ratio. The final mixture was then transferred into a glass sample tube (USA Scientific; 1450-2810) and used for cell sorting. A BD FACSAria-II cell sorter was used for all dCyFIRplex experiments to assess mTq2 (405 nm excitation, 450/50 nm emission) and mRuby3 fluorescence (535 nm excitation, 610/20 nm emission). A gating strategy was set using the three control samples (DI P1 mTq2, individual Gα reporter strains lacking an integrated receptor, and DI P1 mRuby3) such that tracer cells and any cell expressing mTq2 was sorted into a 14 mL collection tube (USA Scientific; 1485-2810) containing 500 μL YPD. Samples treated with water or 500 μM adenosine (well-characterized using dCyFIRscreen, inexpensive, and water-soluble) were used to build a standard curve measuring total events in the mRuby3 and mTq2 positive gates. The standard curve from a water-treated 300-plex was used to determine the number of tracer events that would correspond to 15,000 events in the mTq2 gate for a water-treated 300-plex. Each sample was sorted until the standardized tracer count was reached. Sorted cells were enriched by outgrowth in 5 mL YPD at 30° C. with shaking (200 rpm) for 18 hours. Cells were harvested by centrifugation at 3,000×g for 5 min, and resuspended in 1 mL ddH2O. Cells were either processed immediately for qPCR deconvolution or frozen in 100 μL aliquots for storage at −20° C. The set of samples comparatively deconvoluted by qPCR and NanoString methods were derived from aliquots of the same dCyFIRplex experiments. […]

HCAR3 [3] = biological target: T5, HCAR3 (Homo sapiens, UniProt P49019); conditions: literature value; read-out: EC50 at HCAR3 observed by Colosimo et al.; cited from earlier work
HCAR3 [4] = biological target: T5, HCAR3; test: dCyFIRscreen profiling and titrations in yeast GPCR-Gα reporter strains; assay type: cell-based; design: expressed in transfected cells; conditions: for EC50: titration, yeast GPCR-Gα reporter strain, this study
Method: as §1, §2

GPR35 = biological target: T6, GPR35 (Homo sapiens, UniProt Q9HC97); test: as above; assay type: cell-based
T6 construct: expressed in transfected cells; host or cells: Saccharomyces cerevisiae BY4741-derived GPCR-Gα reporter strains, X-2 landing pad
T6 sequence (Q9HC97 whole entry): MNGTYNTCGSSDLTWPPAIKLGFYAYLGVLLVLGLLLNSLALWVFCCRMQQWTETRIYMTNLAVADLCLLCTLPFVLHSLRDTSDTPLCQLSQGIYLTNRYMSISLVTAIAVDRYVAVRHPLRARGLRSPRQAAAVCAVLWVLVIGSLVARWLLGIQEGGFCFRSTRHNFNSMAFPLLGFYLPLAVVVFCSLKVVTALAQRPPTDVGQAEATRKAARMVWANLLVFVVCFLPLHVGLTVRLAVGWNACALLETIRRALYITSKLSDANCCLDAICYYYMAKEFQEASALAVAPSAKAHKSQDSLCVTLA
Method: as §1, §2

T5 sequence (P49019 whole entry): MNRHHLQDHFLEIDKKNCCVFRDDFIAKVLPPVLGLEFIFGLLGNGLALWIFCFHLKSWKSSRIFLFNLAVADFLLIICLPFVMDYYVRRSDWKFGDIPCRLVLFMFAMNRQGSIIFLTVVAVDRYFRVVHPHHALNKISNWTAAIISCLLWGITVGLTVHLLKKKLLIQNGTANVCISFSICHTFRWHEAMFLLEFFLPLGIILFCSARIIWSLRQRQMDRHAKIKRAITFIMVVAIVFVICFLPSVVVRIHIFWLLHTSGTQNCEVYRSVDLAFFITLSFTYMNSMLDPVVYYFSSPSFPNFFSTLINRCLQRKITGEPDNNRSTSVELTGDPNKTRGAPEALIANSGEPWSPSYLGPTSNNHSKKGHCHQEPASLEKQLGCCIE
T2 sequence (O95136 whole entry): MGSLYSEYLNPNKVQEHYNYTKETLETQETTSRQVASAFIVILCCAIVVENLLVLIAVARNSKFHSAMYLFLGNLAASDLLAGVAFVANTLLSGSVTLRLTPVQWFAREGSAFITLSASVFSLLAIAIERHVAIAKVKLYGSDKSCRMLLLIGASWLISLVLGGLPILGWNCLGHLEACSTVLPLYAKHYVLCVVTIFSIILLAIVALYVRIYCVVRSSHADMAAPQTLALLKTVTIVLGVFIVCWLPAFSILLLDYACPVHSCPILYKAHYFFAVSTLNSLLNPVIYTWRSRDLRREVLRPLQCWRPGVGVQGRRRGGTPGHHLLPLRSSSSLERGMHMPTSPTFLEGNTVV
T3 sequence (P21453 whole entry): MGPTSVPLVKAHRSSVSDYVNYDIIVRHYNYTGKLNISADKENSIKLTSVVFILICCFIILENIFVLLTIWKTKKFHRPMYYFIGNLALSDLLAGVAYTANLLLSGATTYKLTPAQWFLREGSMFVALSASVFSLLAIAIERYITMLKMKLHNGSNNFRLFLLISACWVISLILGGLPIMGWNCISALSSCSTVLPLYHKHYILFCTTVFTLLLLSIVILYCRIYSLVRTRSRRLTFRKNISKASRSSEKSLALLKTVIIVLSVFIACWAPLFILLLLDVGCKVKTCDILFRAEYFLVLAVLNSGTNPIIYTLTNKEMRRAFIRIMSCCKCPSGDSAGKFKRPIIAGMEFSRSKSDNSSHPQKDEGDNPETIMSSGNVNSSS
T4 sequence (Q92633 whole entry): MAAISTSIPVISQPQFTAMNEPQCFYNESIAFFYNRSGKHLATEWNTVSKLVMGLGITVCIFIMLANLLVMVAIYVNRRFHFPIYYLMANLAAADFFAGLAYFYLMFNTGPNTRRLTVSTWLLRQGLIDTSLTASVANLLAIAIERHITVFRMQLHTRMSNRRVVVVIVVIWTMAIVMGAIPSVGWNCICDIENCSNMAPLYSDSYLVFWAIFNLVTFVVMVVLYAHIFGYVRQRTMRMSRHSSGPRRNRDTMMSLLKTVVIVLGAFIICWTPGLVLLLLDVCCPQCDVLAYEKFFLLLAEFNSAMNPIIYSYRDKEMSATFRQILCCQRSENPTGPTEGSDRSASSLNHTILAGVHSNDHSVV

Compound: NCCc1ccccc1 [PEA, phenethylamine]
activity at ADRA2B in words (mode of action, potency range) (ADRA2B): micromolar

activity at S1PR2 in words (mode of action, potency range) (S1PR2): agonist specific for | activity at S1PR1 in words (mode of action, potency range) (S1PR1): agonist specific for | activity at LPAR1 in words (mode of action) (LPAR1): agonist specific for
Compound: CCCCCCCCCCC/C=C\CCCCC(=O)O [petroselinic acid]

Compound: CC(C)CCC[C@@H](C)[C@H]1CC[C@H]2[C@@H]3CC=C4C[C@@H](O)CC[C@]4(C)[C@H]3CC[C@]12C [cholesterol]
response in control dCyFIRscreen profiles [1]: Neither of these ligands elicited responses

Compound: COc1ccc2[nH]cc(CCNC(C)=O)c2c1 [melatonin]
active cell pool, fraction of cell-sorting events for the 300-plex [2]: 1.0%

Compound: phenylethanolamine [PEOA]
activity at ADRA2B in words (mode of action, potency range) (ADRA2B): nanomolar

Compound: O=C(O)CCc1ccccc1 [phenylpropanoic acid]
EC50 (HCAR3 [3]): 208 µM

Compound: C[C@H](N)C(=O)NCC(=O)N[C@H]1CSSC[C@@H](C(=O)O)NC(=O)[C@H](CO)NC(=O)[C@H]([C@@H](C)O)NC(=O)[C@H](Cc2ccccc2)NC(=O)[C@H]([C@@H](C)O)NC(=O)[C@H](CCCCN)NC(=O)[C@H](Cc2c[nH]c3ccccc23)NC(=O)[C@H](Cc2ccccc2)NC(=O)[C@H](Cc2ccccc2)NC(=O)[C@H](CC(N)=O)NC(=O)[C@H](CCCCN)NC1=O [SRIF-14, Somatostatin-14]
active cell pool, fraction of cell-sorting events for the 300-plex [2]: 1.5%

fold higher EC50 at HCAR3 observed by Colosimo et al. versus this study (HCAR3 [4]; 304 μM versus 24 μM): 12.6 fold | EC50 (HCAR3 [4]): 24 µM
Compound: CCCCCC(O)CC(=O)O (stereo not drawn) [3-hydroxyoctanoic acid]

activity at GPR35 in words (mode of action, potency range) (GPR35): activated | EC50 (GPR35; titration, yeast GPCR-Gα reporter strain): 795 µM | fold higher affinity (lower EC50) for HCAR3 compared to GPR35 (HCAR3 [4]; head-to-head titrations of GPR35 and HCAR3): 18 fold and 18.6 fold | EC50 (HCAR3 [4]): 41 µM | fold lower EC50 at HCAR3 than phenylpropanoic acid (HCAR3 [4]; versus literature EC50 of phenylpropanoic acid): 5.1 fold
Compound: O=C(O)c1cc(=O)c2ccccc2[nH]1 [KYNA, kynurenic acid]
activity at ADRA2B in words (mode of action, potency range) (ADRA2B): micromolar interactions; also recorded: negative allosteric modulator | activity at HCAR3 in words (mode of action, potency range) (HCAR3 [4]): micromolar interactions; also recorded: orthosteric agonist
